Columns and labels:
[1] = tested on: OXPHOS deficient cell lines; test: Redox Stress Survival assay, extended panel of OXPHOS deficient cell lines; type: cell-based; details: Homo sapiens, BSO insult, read-out: EC50 values, range over the panel of cell lines
Experimental: Cells were seeded at a density of 4 × 10^3 cells/well into 96-wells black plates and incubated for 24 h. To induce redox stress, semi-logarithmic dilutions of buthionine sulphoximine (BSO, #B2515, Sigma Aldrich) up to 100 µM were added to the cells in culture medium and incubated for 24 h. Cell viability was assessed by quantification of cellular conversion of Calcein AM into fluorescent Calcein. Briefly, after having discarded the BSO containing medium, cells were washed once with M199 without phenol red and loaded with 2 µM Calcein AM (#65-0853-39, Affimetrix eBioscience) in M199 without phenol red for 25 min. At the end of the incubation period, the excess of the dye was washed with M199 without phenol red and Calcein fluorescence was measured with a scanning microplate reader (BMG FLUOstar Omega; Ex. 480 nm, Em. 520 nm). For compound screening and target identification measurements cells were treated with 200 µM BSO alone or in co-incubation with semi-logarithmic dilutions of the test compound. Additionally, where indicated, increasing doses of Auranofin (AFN, #BML-EI206-0100, Enzo) or Aurothioglucose (ATG, #A0606, Sigma Aldrich) were co-incubated with BSO and the test compound. In all cases, cell viability was assessed 24 h after the treatment.

[2] = cited from earlier work
[3] = molecular target: T1, TrxR1, Trx1 and Prdx2 (Homo sapiens, UniProt P32119); test: TrxR1-Trx1-Prdx2 system biochemical assay (NADPH consumption); details: 100 µM compound, H2O2 50 µM, NADPH 75 µM
T1 construct: purchased Novus Biological NBP1-44456 (TrxR1), NBC1-18541 (Trx1), NBC1-25855 (Prdx2)
T1 sequence (P32119 1-198): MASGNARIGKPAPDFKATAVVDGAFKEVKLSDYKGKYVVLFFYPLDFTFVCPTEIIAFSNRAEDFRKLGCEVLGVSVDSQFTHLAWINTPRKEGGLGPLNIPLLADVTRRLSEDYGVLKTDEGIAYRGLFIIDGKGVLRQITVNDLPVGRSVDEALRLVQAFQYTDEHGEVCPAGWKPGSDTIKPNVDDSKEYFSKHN
Experimental: NADPH consumption measurements were performed according to the method described by Nelson et al.[50] in the presence of TrxR1, Trx1 and Prdx2 (Novus Biological NBP1-44456, NBC1-18541 and NBC1-25855, respectively). The incubations contained TrxR1 0.5 µM, Trx1 5 µM, Prdx2 0.5 µM, H2O2 50 µM, NADPH 75 µM in 25 mM potassium phosphate pH 7, 100 mM ammonium sulphate. The experiments were carried out in 96-wells black plates and in triplicate. Briefly, TrxR1, Trx1, and H2O2 were pre-incubated for 5 min at 25 °C for thermal equilibration. Upon addition of NADPH the initial NADPH auto-fluorescence was recorded for 2 min on a scanning microplate reader (PerkinElmer Enspire; Ex. 340 nm, Em. 482 nm) to insure that less than 10% of NADPH is oxidized in the absence of Prdx2. Ultimately Prdx2 was added to start the enzymatic reaction, which was monitored during 60 minutes. To test the effect of the compounds on NADPH consumption, KH176m and KH176 were added at 100 µM final concentration, after the addition of Prdx2. The NADPH fluorescence was followed in time. […] A parallel reaction without TrxR was performed to quantified non-specific NADPH oxidation and used for background correction.

[4] = molecular target: T2, CCDC101 (Homo sapiens, UniProt Q96ES7); test: Surface Plasmon Resonance binding; details: SPR
T2 construct: purchased Abcam Ab124547
T2 sequence (Q96ES7 1-293): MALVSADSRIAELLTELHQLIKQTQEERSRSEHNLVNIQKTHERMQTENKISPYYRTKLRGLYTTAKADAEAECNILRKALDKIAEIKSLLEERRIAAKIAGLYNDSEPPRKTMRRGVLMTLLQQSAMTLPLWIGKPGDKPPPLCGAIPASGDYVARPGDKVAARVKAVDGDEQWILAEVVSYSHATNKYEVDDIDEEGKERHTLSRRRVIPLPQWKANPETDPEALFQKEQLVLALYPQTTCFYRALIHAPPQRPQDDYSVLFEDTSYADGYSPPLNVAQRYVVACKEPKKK
Experimental: Prior to protein immobilization all proteins were dialyzed against HBS-E (10 mM Hepes, 150 mM NaCl, 3 mM EDTA) buffer that was previously filtered through a 0.45 µM membrane using dialyze slide according to the manufacturer instruction. Human recombinant proteins peroxiredoxin 2 (Novus Biological NBC1-25855) and CCDC101 (Abcam Ab124547) were immobilized on CM5 (carboxymethylated dextran covalently attached to a gold surface) using the amine coupling method according to manufacturer’s recommendation (Biacore, GE Healthcare). Briefly the CM5 surface was activated with the mixture of EDC/NHS. Recombinant proteins at dilution 1 µg/ml in a corresponding buffer i.e. Peroxiredoxin 2 and CCDC101 in sodium acetate buffer 100 mM (pH 4.9). The control channel was activated with EDC/NHS. […] KH176 andKH176m were solubilized in HBSS at stock solution 1 mM. […] The sensor chip surface was regenerated with 1 mM HCl. The specific binding profiles were obtained after subtracting the response signal from the control empty channel and from blank-buffer injection. The specific binding was calculated using Biaeval 3 software (Biacore, GE Healthcare) with the postulate of 1:1 ligand/analyte interaction.

[5] = Intracellular conversion of KH176 into KH176m (LC-MS/MS); details: 24 hours incubation with 3 µM KH176
Experimental: Cells were seeded at a density of 125 × 10^3 cells/well into 6-wells transparent plates (#657160, Greiner Bio-one) and incubated for 24 h. The culture medium was then replaced with fresh medium containing 3 µM KH176 and the cells were incubated for an additional 24 h. At the end of the treatment time, cells were washed twice with ice-cold PBS (#200120169, Thermo Fischer Scientific) before deprotenization with perchloric acid. The samples were then analyzed with standard LC-MS/MS system (Accela HPLC system, Thermo Fischer Scientific) equipped with a Zorbax Eclipse Plus C18 analytical column (Rapid Resolution HD 1.8 μm; 50 × 2.1 mm, Agilent, USA) and coupled with a UHPLC Guard Zorbax Eclipse Plus C18 pre-column (1.8 µm; 5 × 2.1 mm, Agilent). After separation the eluate was directly passed into a TSQ Vantage tandem mass spectrometer (Thermo Fischer Scientific) equipped with an electro-spray ionization source. Detection of the compounds was based on isolation of the protonated molecular ion, [M + H]+, and subsequent MS/MS fragmentations and selected reaction monitoring were performed. Proprietary compounds of Khondrion were used as internal standards.

| Structure (SMILES) | EC50 [1] | Safety in Phase 1 ([2]; healthy adult male volunteers, NCT02544217) | Pharmacokinetic properties in Phase 1 ([2]; human, in vivo) | Effect on NADPH consumption [3] | Binding to CCDC101 [4] | Ratio KH176m/KH176 in cells [5] |
| --- | --- | --- | --- | --- | --- | --- |
| Cc1c(C)c2c(c(C)c1O)CC[C@@](C)(C(=O)N[C@@H]1CCCNC1)O2.Cl [KH176, (S)-6-hydroxy-2,5,7,8-tetramethyl-N-((R)-piperidin-3-yl)chroman-2-carboxamide hydrochloride] | 35 to 270 nM | acceptable safety | good pharmacokinetic properties |  |  |  |
| CC1=C(C)C(=O)C(CC[C@](C)(O)C(=O)N[C@@H]2CCCNC2)=C(C)C1=O [KH176m] |  |  |  | significantly accelerate the consumption of NADPH | no binding | 0.48 |

— PMC5920042, “KH176 Safeguards Mitochondrial Diseased Cells from Redox Stress-Induced Cell Death by Interacting with the Thioredoxin System/Peroxiredoxin Enzyme Machinery” (Scientific Reports, 2018)
